Assay results as given in patent US9815796B2 (Merck Sharp & Dohme Corp., priority 2013, dated 2017).

molecular target: Rhesus PDE2A3 (Macaca mulatta, UniProt B3VTJ2); assay: PDE2 fluorescence polarization (IMAP FP) inhibition assay, rhesus enzyme; format: biochemical, rhesus macaque; conditions: Rhesus PDE2, Lab A, at 1 uM; read-out: Rhesus PDE2 % inh. at 1 uM - Lab A
Procedure: The activity of the compounds in accordance with the present invention as PDE2 inhibitors may be readily determined using a fluorescence polarization (FP) methodology (Huang, W., et al., J. Biomol Screen, 2002, 7: 215).
In a typical experiment the PDE2 inhibitory activity of the compounds of the present invention was determined in accordance with the following experimental method. Rhesus PDE2A3 was amplified from rhesus macaque brain cDNA (Biochain Institute, Hayward, Calif.) using primers based on human PDE2A sequence (accession NM_002599.3) where the forward primer containing a Kozak consensus was 5′-[…]-3′ and the reverse primer was 5′-[…]-3′. Amplification with Easy-A High-Fidelity PCR cloning enzyme (Stratagene, La Jolla, Calif.) was 95° C. for 2 minutes followed by thirty three cycles of 95° C. for 40 seconds, 52° C. for 30 seconds, and 72° C. for 2 minutes 48 seconds. Final extension was 72° C. for 7 minutes. The PCR product was TA cloned into pcDNA3.3-TOPO (Invitrogen, Carlsbad, Calif.) according to standard protocol. A consensus sequence was developed from multiple clones and then deposited into GenBank (EU812167). AD293 cells (Stratagene, La Jolla, Calif.) with 70-80% confluency were transiently transfected with rhesus PDE2A3/pcDNA3.3-TOPO using Lipofectamine 2000 according to manufacturer specifications (Invitrogen, Carlsbad, Calif.). Cells were harvested 48 hours post-transfection and lysed by sonication (setting 3, 10×5 sec pulses) in a buffer containing 20 mM HEPES pH 7.4, 1 mM EDTA and Complete Protease Inhibitor Cocktail Tablets (Roche, Indianapolis, Ind.). Lysate was collected by centrifugation at 75,000×g for 20 minutes at 4° C. and supernatant utilized for evaluation of PDE2 activity. The fluorescence polarization assay for cyclic nucleotide phosphodiesterases was performed using an IMAP® FP kit supplied by Molecular Devices, Sunnyvale, Calif. (product # R8139). […] Assays were performed at room temperature in 384-well microtiter plates with an incubation volume of 20.2 μL. Solutions of test compounds were prepared in DMSO and serially diluted with DMSO to yield 8 μL of each of 10 solutions differing by 3-fold in concentration, at 32 serial dilutions per plate. […] 0% of inhibition is determined by using DMSO (1% final concentrations).
A Labcyte Echo 555 (Labcyte, Sunnyvale, Calif.) is used to dispense 200 nL from each well of the titration plate to the 384 well assay plate. Ten microliters of a solution of enzyme (1/2000 final dilution from aliquots; sufficient to produce 20% substrate conversion) was added to the assay plate. Next 10 uL of a separate solution of the substrate FAM-labeled cAMP (50 nM final concentration product # R7506 from Molecular Devices) and the activator cGMP (1 uM final concentration), prepared in the assay buffer (10 mM Tris HCl, pH 7.2, 10 mM MgCl2, 0.05% NaN3 0.01% Tween-20, and 1 mM DTT) was added to the assay plate and shaken to mix. The reaction is allowed to proceed at room temperature for 60 minutes. A binding solution is then made from the kit components, comprised of 80% Solution A, 20% Solution B and binding reagent at a volume of 1/600 the total binding solution. The enzymatic reaction is stopped by addition of 60 μL of the binding solution to each well of the assay plates and the plates are sealed and shaken for 30 seconds. The plate was incubated at room temperature for at least one hour prior to determining the fluorescence polarization (FP). The parallel and perpendicular fluorescence of each well of the plate was measured using a Tecan Genios Pro plate reader (Tecan, Switzerland) or Perkin Elmer EnVision™ plate reader (Waltham, Mass.). Fluorescence polarization (mP) was calculated from the parallel (S) and perpendicular (P) fluorescence of each sample well and the analogous values for the median control well, containing only substrate (So and Po), using the following equation: Polarization (mP)=1000*(S/So−P/Po)/(S/So+P/Po).

Chain of Rhesus PDE2A3 (B3VTJ2 1-941): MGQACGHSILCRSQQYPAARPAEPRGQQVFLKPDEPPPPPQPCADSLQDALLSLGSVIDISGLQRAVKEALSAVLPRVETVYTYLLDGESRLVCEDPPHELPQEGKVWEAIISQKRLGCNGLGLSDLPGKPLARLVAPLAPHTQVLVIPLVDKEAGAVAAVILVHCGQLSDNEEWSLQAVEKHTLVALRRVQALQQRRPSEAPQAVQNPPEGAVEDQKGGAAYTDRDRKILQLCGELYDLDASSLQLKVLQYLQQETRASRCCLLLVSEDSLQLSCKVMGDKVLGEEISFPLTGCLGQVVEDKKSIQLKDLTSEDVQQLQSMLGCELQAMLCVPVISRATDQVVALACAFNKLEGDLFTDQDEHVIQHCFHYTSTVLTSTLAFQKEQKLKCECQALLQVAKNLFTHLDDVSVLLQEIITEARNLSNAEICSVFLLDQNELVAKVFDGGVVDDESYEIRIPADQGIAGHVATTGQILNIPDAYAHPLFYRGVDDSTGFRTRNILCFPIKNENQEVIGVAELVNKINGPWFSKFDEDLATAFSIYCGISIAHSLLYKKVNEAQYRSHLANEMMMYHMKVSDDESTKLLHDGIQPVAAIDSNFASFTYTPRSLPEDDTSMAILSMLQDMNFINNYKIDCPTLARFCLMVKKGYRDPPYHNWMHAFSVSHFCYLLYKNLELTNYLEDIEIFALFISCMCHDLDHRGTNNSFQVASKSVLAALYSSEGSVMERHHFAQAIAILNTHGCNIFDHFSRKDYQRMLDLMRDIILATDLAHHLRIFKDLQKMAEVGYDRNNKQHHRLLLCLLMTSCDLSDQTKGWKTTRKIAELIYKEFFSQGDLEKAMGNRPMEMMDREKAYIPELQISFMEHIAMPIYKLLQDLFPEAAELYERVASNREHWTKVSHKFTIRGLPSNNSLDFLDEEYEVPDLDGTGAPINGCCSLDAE

Question: Which inhibition at 1 µM does the source give for CC(C)(C)c1ccc(CCNC(=O)c2cc(=O)[nH]c(-c3ccccc3)n2)cc1 [Example 375, N-[2-(4-tert-butylphenyl)ethyl]-6-oxo-2-phenyl-1,6-dihydropyrimidine-4-carboxamide] here?
Answer: 46%

same assay, conditions: Rhesus PDE2, Lab A; read-out: Rhesus PDE2 Ki (nM) - Lab A

Question: For COc1cc(C(C)NC(=O)c2cc(=O)[nH]c(C)n2)ccc1C(F)(F)F (stereo not drawn) [Example 27, N-{1-[3-methoxy-4-(trifluoromethyl)phenyl]ethyl}-2-methyl-6-oxo-1,6-dihydropyrimidine-4-carboxamide], which Ki is on record?
Answer: 1160 nM

Question: For Cc1nc(C(=O)N[C@H](C)c2ccc(C(F)(F)F)c3ccccc23)cc(=O)[nH]1 [Example 28, 2-methyl-6-oxo-N-{(1R)-1-[4-(trifluoromethyl)naphthalen-1-yl]ethyl}-1,6-dihydropyrimidine-4-carboxamide], which Ki is on record?
Answer: 3490 nM

Question: How did the Ki turn out when Cc1cc(C(F)(F)F)ccc1CNC(=O)c1cc(=O)[nH]c(-c2ccccc2)n1 [Example 180, N-[2-methyl-4-(trifluoromethyl)benzyl]-6-oxo-2-phenyl-1,6-dihydropyrimidine-4-carboxamide] was run?
Answer: 2050 nM

Question: Which Ki does the source give for C[C@@H](NC(=O)c1cc(=O)[nH]c(-c2ccccc2)n1)c1ccc(O)cc1 [Example 339, N-[(1R)-1-(4-hydroxyphenyl)ethyl]-6-oxo-2-phenyl-1,6-dihydropyrimidine-4-carboxamide] here?
Answer: ~417 nM

Question: Which Ki does the source give for CC(C)(NC(=O)c1cc(=O)[nH]c(-c2ncccn2)n1)c1ccc(OC(F)(F)F)c(F)c1 [Example 71, N-{1-[3-fluoro-4-(trifluoromethoxy)phenyl]-1-methylethyl}-6-oxo-1,6-dihydro-2,2′-bipyrimidine-4-carboxamide] here?
Answer: 1570 nM

Question: For COc1cc(C(F)(F)F)ccc1[C@H](C)NC(=O)c1cc(=O)[nH]c(C2CC2)n1 [Example 223, 2-cyclopropyl-N-{(1S)-1-[2-methoxy-4-(trifluoromethyl)phenyl]ethyl}-6-oxo-1,6-dihydropyrimidine-4-carboxamide], which Ki is on record?
Answer: 1020 nM

Question: CC(C)(NC(=O)c1cc(=O)[nH]c(-c2ccccc2)n1)c1ccc(F)cc1 [Example 349, N-[1-(4-fluorophenyl)-1-methylethyl]-6-oxo-2-phenyl-1,6-dihydropyrimidine-4-carboxamide] was tested. Which Ki did it give?
Answer: ~525 nM

Question: Which Ki does the source give for CC[C@@H](NC(=O)c1cc(=O)[nH]c(-c2ncccn2)n1)c1ccc(SC(F)(F)F)cc1 [Example 100, 6-oxo-N-[(1R)-1-{4-[(trifluoromethyl)sulfanyl]phenyl]propyl]-1,6-dihydro-2,2′-bipyrimidine-4-carboxamide] here?
Answer: 2.6 nM

Question: With Cc1cc(C(F)(F)F)ccc1C(C)NC(=O)c1cc(=O)[nH]c(-c2ncccn2)n1 (stereo not drawn) [Example 90, N-{1-[2-methyl-4-(trifluoromethyl)phenyl]ethyl}-6-oxo-1,6-dihydro-2,2′-bipyrimidine-4-carboxamide] as the molecule, how does the Ki read?
Answer: 732 nM

Question: Cc1nc(C(=O)N[C@H](C)c2cccc(C(F)(F)F)c2)cc(=O)[nH]1 [Example 271, 2-methyl-6-oxo-N-{(1R)-1-[3-(trifluoromethyl)phenyl]ethyl}-1,6-dihydropyrimidine-4-carboxamide] was tested. Which Ki did it give?
Answer: 2960 nM

Question: With COc1ccc(C(NC(=O)c2cc(=O)[nH]c(C3CC3)n2)c2ccc(C(F)(F)F)cc2)cc1 (stereo not drawn) [Example 205, 2-cyclopropyl-N-{(4-methoxyphenyl)[4-(trifluoromethyl)phenyl]methyl}-6-oxo-1,6-dihydropyrimidine-4-carboxamide] as the molecule, how does the Ki read?
Answer: 694 nM

Question: How did the Ki turn out when Cc1nc(C(=O)NC(C)c2ccc(C(C)(C)C)cc2)cc(=O)[nH]1 (single isomer, unassigned) [Example 310, (S)- or (R)-N-[1-(4-tert-butylphenyl)ethyl]-2-methyl-6-oxo-1,6-dihydropyrimidine-4-carboxamide] was run?
Answer: 5650 nM

Question: Which Ki does the source give for CC(C)(C)c1ccc(CCNC(=O)c2cc(=O)[nH]c(-c3ccccc3)n2)cc1 [Example 375, N-[2-(4-tert-butylphenyl)ethyl]-6-oxo-2-phenyl-1,6-dihydropyrimidine-4-carboxamide] here?
Answer: 1000 nM

same assay, conditions: Rhesus PDE2, Lab B; read-out: Rhesus PDE2 Ki (nM) - Lab B

Question: With CC(NC(=O)c1cc(=O)[nH]c(-c2ccccc2)n1)c1cccc(-c2ccccc2)c1 (stereo not drawn) [Example 410, N-(1-biphenyl-3-ylethyl)-6-oxo-2-phenyl-1,6-dihydropyrimidine-4-carboxamide] as the molecule, how does the Ki read?
Answer: 1960 nM

Question: Which Ki does the source give for C[C@@H](NC(=O)c1cc(=O)[nH]c(-c2ccccc2)n1)c1ccc(O)cc1 [Example 339, N-[(1R)-1-(4-hydroxyphenyl)ethyl]-6-oxo-2-phenyl-1,6-dihydropyrimidine-4-carboxamide] here?
Answer: 653 nM

Question: How did the Ki turn out when Cc1nc(C(=O)NC(C)(c2ccc(S(F)(F)(F)(F)F)cc2)C(C)C)cc(=O)[nH]1 (single isomer, unassigned) [Example 662, (S)- or (R)-N-{1,2-dimethyl-1-[4-(pentafluoro-λ^6-sulfanyl)phenyl]propyl}-2-methyl-6-oxo-1,6-dihydropyrimidine-4-carboxamide] was run?
Answer: ~1220 nM

Question: With C[C@H](c1ccc(C(F)(F)F)cc1)N(C)C(=O)c1cc(=O)[nH]c(-c2ccccc2)n1 [Example 389, N-methyl-6-oxo-2-phenyl-N-{(1R)-1-[4-(trifluoromethyl)phenyl]ethyl}-1,6-dihydropyrimidine-4-carboxamide] as the molecule, how does the Ki read?
Answer: 8980 nM

Question: How did the Ki turn out when CC(C)(NC(=O)c1cc(=O)[nH]c(-c2ccccc2)n1)c1ccc(F)cc1 [Example 349, N-[1-(4-fluorophenyl)-1-methylethyl]-6-oxo-2-phenyl-1,6-dihydropyrimidine-4-carboxamide] was run?
Answer: 713 nM

Question: CC(NC(=O)c1cc(=O)[nH]c(-c2ccccc2)n1)c1cccc(OC(F)(F)F)c1 (stereo not drawn) [Example 422, 6-oxo-2-phenyl-N-{1-[3-(trifluoromethoxy)phenyl]ethyl}-1,6-dihydropyrimidine-4-carboxamide] was tested. Which Ki did it give?
Answer: 1840 nM

Question: How did the Ki turn out when COc1ccc(C(C)(C)c2nc(C(=O)N[C@@H](c3ccc(C(F)(F)F)cc3)C(C)(C)C)cc(=O)[nH]2)cc1 [Example 456, N-{(1R)-2,2-dimethyl-1-[4-(trifluoromethyl)phenyl]propyl}-2-[1-(4-methoxyphenyl)-1-methylethyl]-6-oxo-1,6-dihydropyrimidine-4-carboxamide] was run?
Answer: 98 nM

Question: With CCOC(=O)c1ccc([C@@H](C)NC(=O)c2cc(=O)[nH]c(-c3ncccn3)n2)cc1 [Example 432, ethyl 4-[(1R)-1-{[(6-oxo-1,6-dihydro-2,2′-bipyrimidin-4-yl)carbonyl]amino}ethyl]benzoate] as the molecule, how does the Ki read?
Answer: > 2970 nM

Question: With CC(NC(=O)c1cc(=O)[nH]c(-c2ccccc2)n1)c1cccc(-c2ccc(F)cc2)c1 (stereo not drawn) [Example 396, N-[1-(4′-fluorobiphenyl-3-yl)ethyl]-6-oxo-2-phenyl-1,6-dihydropyrimidine-4-carboxamide] as the molecule, how does the Ki read?
Answer: ~20300 nM

Question: How did the Ki turn out when C[C@H](NC(=O)c1cc(=O)[nH]c(-c2ccccc2)n1)c1cccc2ccccc12 [Example 362, N-[(1S)-1-naphthalen-1-ylethyl]-6-oxo-2-phenyl-1,6-dihydropyrimidine-4-carboxamide] was run?
Answer: ~24700 nM

Question: For CC(C)(C)c1ccc(CCNC(=O)c2cc(=O)[nH]c(-c3ccccc3)n2)cc1 [Example 375, N-[2-(4-tert-butylphenyl)ethyl]-6-oxo-2-phenyl-1,6-dihydropyrimidine-4-carboxamide], which Ki is on record?
Answer: 2040 nM

Question: How did the Ki turn out when CC(NC(=O)c1cc(=O)[nH]c(-c2ccccc2)n1)c1ccc(-c2ccncc2)cc1 (stereo not drawn) [Example 384, 6-oxo-2-phenyl-N-[1-(4-pyridin-4-ylphenyl)ethyl]-1,6-dihydropyrimidine-4-carboxamide] was run?
Answer: 319 nM

Question: CC(NC(=O)c1cc(=O)[nH]c(-c2ccccc2)n1)c1ccccc1-c1ccccc1 (stereo not drawn) [Example 416, N-(1-biphenyl-2-ylethyl)-6-oxo-2-phenyl-1,6-dihydropyrimidine-4-carboxamide] was tested. Which Ki did it give?
Answer: 1770 nM

Question: Which Ki does the source give for CC[C@@H](NC(=O)c1cc(=O)[nH]c(C(C)(C)c2ccc(OC)cc2)n1)c1ccc(C(F)(F)F)c(F)c1 [Example 503, N-{(1R)-1-[3-fluoro-4-(trifluoromethyl)phenyl]propyl}-2-[1-(4-methoxyphenyl)-1-methylethyl]-6-oxo-1,6-dihydropyrimidine-4-carboxamide] here?
Answer: 111 nM

Question: For C[C@@H](NC(=O)c1cc(=O)[nH]c(-c2ccccc2)n1)c1ccc([N+](=O)[O-])cc1 [Example 459, N-[(1R)-1-(4-nitrophenyl)ethyl]-6-oxo-2-phenyl-1,6-dihydropyrimidine-4-carboxamide], which Ki is on record?
Answer: 224 nM

Question: For COc1ccc([C@H](C)NC(=O)c2cc(=O)[nH]c(-c3ccccc3)n2)cc1 [Example 357, N-[(1S)-1-(4-methoxyphenyl)ethyl]-6-oxo-2-phenyl-1,6-dihydropyrimidine-4-carboxamide], which Ki is on record?
Answer: ~11300 nM
